These are literature values, as cited in patent US20070225337A1, “Novel Co-Precipitate of Amorphous Rosiglitazone” (SANDOZ AG, priority 2004, published 2007).

For series [1] the following is noted: compared with the corresponding free base.

With `CN(CCOc1ccc(CC2SC(=O)NC2=O)cc1)c1ccccn1.O=C(O)/C=C\C(=O)O` (centres unmarked) [Rosiglitazone maleate, 5-[4-[2-[N-methyl-N-(2-pyridyl)amino]ethoxy]benzyl]thiazolidine-2,4-dione maleate], the “stability in the solid form” value is listed as “good stability in the solid form”. The solubility in water result in series [1] is given as “significantly more soluble in water than the corresponding free base”.
